# Experimental data published in patent publication US5856127A, “Antimicrobial peptides” (The Research Foundation of State University of New York, priority 1996, dated 1999).
# Where a SMILES comes first, the peptide text is derived from it.
# Columns and labels:
# Salix lucida pollen = assay type: cell-based; details: pH 6.2
# Experimental: Willow pollen was extracted using the protocol described by de Niella and Maynard (1993). Catkins were gently stirred in carbon tetrachloride. The pollen/carbon tetrachloride suspension was filtered (Whatman filter paper) with suction. The pollen was transferred to microfuge tubes (1.5 ml) with a fine-bristle artist's brush and stored at -20° C.
# (§1) To rehydrate, small amounts of pollen were placed in open microfuge tubes (1.5 ml) which were placed into a closed glass petri dish with a dampened tissue. Pollen was rehydrated overnight in a dark chamber at 14° C.
# (§2) Rehydrated plant pollen was diluted with sucrose-boric acid medium ("SBM") to a concentration of 80 grains/μl (Neubauer hemocytometer). Media for pollen germination (SBM, pH 6.2) was prepared with deionized distilled water, sucrose (150 g/L), and boric acid (150 mg/L). Dilutions of all peptides tested against rehydrated pollen grains were aseptically prepared with sterile SBM. Aliquots (50 μl) of peptide solutions were aseptically placed in ELISA microtitre plates as before. Approximately 400 pollen grains (5 μl) were added to the 50 μl volume of peptide solution in the well to give the final peptide concentrations of 0, 1.25, 2.5, 5, 10, 15, 20, 25, 50, 100, 150, 200, and 250 μM. Microtitre plates were incubated in the dark at room temperature for 24 hr. […] All tests were repeated 4 or more times. Controls without peptides were included with all tests. The highest concentration tested was 250 μM.
# [1] = tested on: Castanea mollissima pollen; assay type: cell-based; details: pH 6.2
# Experimental: (§3) Pollen collections for Chinese chestnut (Castanea mollissima), tomato (Lycopersicon esculentum), and willow (Salix lucida) clone 507 were made in central New York. Chestnut catkins and tomato flowers were placed into paper bags in an ice chest. Within 2 hr after collection, catkins were cut into 1.0 cm segments and tomato anthers were placed into sterile 15 ml Falcon tubes. The tubes were "capped" with parafilm punctured with 12-15 holes and lyophilized for 24 hr. Lyophilized samples were stored at -20°C. until removed for rehydration.
# as §1, §2
# Malus domestica pollen = assay type: cell-based; details: pH 6.2
# Experimental: Apple (Malus domestica) cultivar "Empire" pollen was supplied by Susan Brown, Department of Horticultural Sciences, Cornell University, New York State Agricultural Experiment Station, Geneva, N.Y.
# as §1, §2
# [2] = tested on: Lycopersicon esculentum pollen; assay type: cell-based; details: pH 6.2
# Experimental: as §3, §1, §2
# Candida albicans = details: against the yeast Candida albicans; cited from earlier work
# Pseudomonas aeruginosa = details: against Pseudomonas aeruginosa; cited from earlier work
# [3] = combined with either magainin I or magainin II in a 1:1 molar ratio; cited from earlier work
# Cryphonectria parasitica = assay: MIC against fungal conidia (Cryphonectria parasitica); assay type: cell-based; details: strain EP42, PDAmb pH 5.2, scored at 6 days
# Experimental: (§4) Dilutions of peptides, prepared in sterile deionized water, were placed (20 μl aliquots) in Corning disposable sterile polystyrene ELISA plates (96 well, high binding) which had been pretreated with bovine serum albumin by rinsing each well with 200 μl of a 1.0 mg/ml solution.
# (§5) Media (PDAmb, pH 5.2) was prepared with deionized water, Difco potato dextrose broth (12 g/L), Sigma D,L-methionine (0.05 g/L), Sigma biotin (2 mg/L), and FisherBiotech low melting point agarose (20 g/L). Sterilized media was added to the wells to make a final volume of 100 μl and allowed to harden for 3 hr prior to inoculation with 10 μl of conidial suspension. Peptide concentrations tested were 0, 1.25, 2.5, 5, 10, 15, 20, 25, 50, 100, 150, 200, and 250 μM.
# (§6) Fungal conidial suspensions were aseptically prepared from agar plate cultures of C. parasitica and S. musiva or liquid cultures for F. oxysporum f.sp. lycopersici. Conidia were suspended from agar plates with 10 ml sterile 1% Tween 20. All culture suspensions were filtered through four layers of sterile cheesecloth, collected in sterile 15 ml Falcon tubes, and centrifuged for 3 min at 1900×g. The pellets were then suspended in 10 ml sterile deionized water and centrifuged for 3 min at 1900×g. The "washed" pellets were suspended in 5 ml sterile deionized water. The conidial concentration was determined using a hemocytometer (Fisher ultra plane, Neubauer ruling) and then diluted to 1.0×10^4 conidia/ml.
# (§7) Approximately 100 conidia (10 μl) were transferred to each microtitre plate well. Microtitre plates were incubated in ambient light at room temperature in a moist chamber (plastic box containing wet paper towels and covered with clear plastic wrap). Tests with S. musiva used continuous light. Plates were scored for growth at 6 days and photographed. All tests were repeated 4 or more times. Controls without peptides were included with all tests.
# Septoria musiva = assay: MIC against fungal conidia (Septoria musiva); assay type: cell-based; details: strain 92-49C, PDAmb pH 5.2, scored at 6 days, total prevention of germination
# Experimental: as §4, §5, §6, §7
# Fusarium oxysporum = assay: MIC against fungal conidia (Fusarium oxysporum); assay type: cell-based; details: f. sp. lycopersici strain 73, PDAmb pH 5.2, scored at 6 days
# Experimental: as §4, §5, §6, §7
# [4] = tested on: microorganisms and animal red blood cells; details: cited from earlier work
# bacteria = assay: Activity against bacteria relative to magainin (applicants' observation); assay type: cell-based; details: three amino acid substitution versus magainin
# Erwinia amylovora = assay: MIC against bacteria (Erwinia amylovora); assay type: cell-based; details: Collection 88-100, no visible lawn or colonies after 3 days
# Experimental: as §4
# (§8) Bacterial suspensions of A. tumefaciens, E. amylovora, and P. syringae were obtained from liquid cultures grown in Luria Broth (Atlas and Parks 1993). Cultures were grown at 25°C. on a rotary shaker (110 rpm) for 14 hr. Bacterial cell suspensions with an optical density between 0.7 and 0.85 at 600 nanometers (OD600) were used for assay inoculations. Dilutions of peptides were placed in the 96-well ELISA plates as described above. The final peptide concentrations tested were 0, 0.625, 1.25, 2.5, 5, 10, 15, 20, 25, 50, 100, and 250 μM. All tests were repeated 2 or more times. Controls without peptides were included with all tests. The MIC for bacterial cells was the lowest peptide concentration associated with no visible bacterial lawn or isolated colonies on the medium after 3 days in all the repeated tests.
# [5] = tested on: selected filamentous fungi; assay: Activity against filamentous fungi relative to magainin (applicants' observation); assay type: cell-based; details: three amino acid substitution versus magainin
# Pseudomonas syringae = assay: MIC against bacteria (Pseudomonas syringae); assay type: cell-based; details: Collection PSS34, no visible lawn or colonies after 3 days
# Experimental: as §4, §8
# [6] = tested on: Agrobacterium tumefaciens; assay: MIC against bacteria (Agrobacterium tumefaciens); assay type: cell-based; details: wild-type strain Bo542, no visible lawn or colonies after 3 days
# Experimental: as §4, §8
Compound,"MIC, Salix lucida (Salix lucida pollen) [µM]","MIC, Castanea mollissima [1] [µM]","MIC, Cryphonectria parasitica (Cryphonectria parasitica) [µM]","MIC, Septoria musiva (Septoria musiva) [µM]","MIC, Fusarium oxysporum (Fusarium oxysporum) [µM]",further results
CSCC[C@H](N)C(=O)N[C@@H](C)C(=O)N[C@@H](C)C(=O)N[C@@H](CCCNC(=N)N)C(=O)N[C@@H](C)C(=O)N[C@@H](C)C(=O)NCC(=O)N[C@@H](CC(C)C)C(=O)N[C@@H](C)C(=O)N[C@@H](C)C(=O)N[C@@H](CCCNC(=N)N)C(=O)N[C@@H](CC(C)C)C(=O)N[C@@H](C)C(=O)N[C@@H](C)C(=O)N[C@@H](CC(C)C)C(=O)N[C@@H](C)C(=O)N[C@@H](CC(C)C)C(=O)N[C@@H](CCCNC(=N)N)C(=O)N[C@@H](C)C(=O)N[C@@H](CC(C)C)C(=O)O [ESF6] (H-MAARAAGLAARLAALALRAL-OH),> 250,> 250,,,,
CSCC[C@H](N)C(=O)N[C@@H](C)C(=O)N[C@@H](CO)C(=O)N[C@@H](CCCNC(=N)N)C(=O)N[C@@H](C)C(=O)N[C@@H](C)C(=O)NCC(=O)N[C@@H](CC(C)C)C(=O)N[C@@H](C)C(=O)N[C@@H](C)C(=O)N[C@@H](CCCNC(=N)N)C(=O)N[C@@H](CC(C)C)C(=O)N[C@@H](C)C(=O)N[C@@H](CCCNC(=N)N)C(=O)N[C@@H](CC(C)C)C(=O)N[C@@H](C)C(=O)N[C@@H](CC(C)C)C(=O)N[C@@H](CCCNC(=N)N)C(=O)O [ESF12] (H-MASRAAGLAARLARLALR-OH),> 250,> 250,,,,"MIC, Malus domestica (Malus domestica pollen): > 250 µM; MIC, Lycopersicon esculentum [2]: > 250 µM"
XPF,,,,,,times more effective than PGLa (Candida albicans): 2-2.5 times
PGLa,,,,,,times more active than XPF (Pseudomonas aeruginosa): 4-5 times; increase of antimicrobial activity [3]: 20-50 fold
CSCC[C@H](N)C(=O)N[C@@H](C)C(=O)N[C@@H](CO)C(=O)N[C@@H](CCCNC(=N)N)C(=O)N[C@@H](C)C(=O)N[C@@H](C)C(=O)NCC(=O)N[C@@H](CC(C)C)C(=O)N[C@@H](C)C(=O)N[C@@H](C)C(=O)N[C@@H](CCCNC(=N)N)C(=O)N[C@@H](CC(C)C)C(=O)N[C@@H](C)C(=O)N[C@@H](CCCNC(=N)N)C(=O)N[C@@H](CC(C)C)C(=O)N[C@@H](C)C(=O)N[C@@H](CC(C)C)C(=O)N[C@@H](CCCNC(=N)N)C(=O)N[C@@H](C)C(=O)N[C@@H](CC(C)C)C(=O)O [ESF1] (H-MASRAAGLAARLARLALRAL-OH),> 250,> 250,,,,
cecropin B,,,15,5,20,
Magainin I,,,10,5,15,
CSCC[C@H](N)C(=O)N[C@@H](C)C(=O)N[C@@H](CO)C(=O)N[C@@H](CCCNC(=N)N)C(=O)N[C@@H](C)C(=O)N[C@@H](C)C(=O)NCC(=O)N[C@@H](CC(C)C)C(=O)N[C@@H](C)C(=O)N[C@@H](CCCNC(=N)N)C(=O)N[C@@H](CCCNC(=N)N)C(=O)N[C@@H](CC(C)C)C(=O)N[C@@H](C)C(=O)N[C@@H](CCCNC(=N)N)C(=O)N[C@@H](CC(C)C)C(=O)N[C@@H](C)C(=O)N[C@@H](CCCNC(=N)N)C(=O)N[C@@H](CCCNC(=N)N)C(=O)N[C@@H](C)C(=O)N[C@@H](CC(C)C)C(=O)O [ESF5] (H-MASRAAGLARRLARLARRAL-OH),> 250,> 250,,,,
CC[C@H](C)[C@H](NC(=O)CN)C(=O)NCC(=O)N[C@@H](C)C(=O)N[C@H](C(=O)N[C@@H](CC(C)C)C(=O)N[C@@H](CCCCN)C(=O)N[C@H](C(=O)N[C@@H](CC(C)C)C(=O)N[C@H](C(=O)N[C@H](C(=O)NCC(=O)N[C@@H](CC(C)C)C(=O)N1CCC[C@H]1C(=O)N[C@@H](C)C(=O)N[C@@H](CC(C)C)C(=O)N[C@H](C(=O)N[C@@H](CO)C(=O)N[C@@H](Cc1c[nH]c2ccccc12)C(=O)N[C@H](C(=O)N[C@@H](CCCCN)C(=O)N[C@@H](CCCNC(=N)N)C(=O)N[C@@H](CCCCN)C(=O)N[C@@H](CCCNC(=N)N)C(=O)N[C@@H](CCC(N)=O)C(=O)N[C@@H](CCC(N)=O)C(N)=O)[C@@H](C)CC)[C@@H](C)CC)[C@@H](C)O)[C@@H](C)O)C(C)C)C(C)C [melittin],,,,,,lytic activity [4]: very lytic
"(Ala^8,13,15)magainin II [Ala^8,13,15 Magainin II]",,,30,10,15,"change of magainin activity against bacteria (bacteria): increased magainin activity against bacteria; MIC, Erwinia amylovora (Erwinia amylovora): 250 µM; change of magainin activity against selected filamentous fungi [5]: opposite effect; MIC, Pseudomonas syringae (Pseudomonas syringae): 250 µM; MIC, Agrobacterium tumefaciens [6]: 100 µM"
